Paper PMC8621101, “Inhibition of XPO-1 Mediated Nuclear Export through the Michael-Acceptor Character of Chalcones” (Pharmaceuticals, 2021)

Key:
Assay type in all cases: cell-based
Z-138 cells = assay: Cell proliferation assay (IncuCyte confluence), Z-138; conditions: Homo sapiens; Z-138 non-Hodgkin lymphoma; 72 h; mean of two independent experiments ± SEM; read-out: IC50 antiproliferative activity Z-138
Procedure: (§1) Cancer cell lines HCT-116, NCI-H460, HL-60, K-562 and Z-138 were acquired from the American Type Culture Collection (ATCC, Manassas, VA, USA). The DND-41 cell line was purchased from the Deutsche Sammlung von Mikroorganismen und Zellkulturen (DSMZ Leibniz-Institut, Brunswick, Germany), and the HAP-1 cell line was ordered from Horizon Discovery (Horizon Discovery Group, Water Beach, UK). All cell lines were cultured as recommended by the suppliers. Culture media were purchased from Gibco Life Technologies and supplemented with 10% fetal bovine serum (HyClone, GE Healthcare Life Sciences, Chicago, Illinois, USA).
(§2) Adherent cell lines HCT-116, NCI-H460 and Hap-1 cells were seeded at a density between 500 and 1500 cells per well in 384-well tissue culture plates (Greiner). After overnight incubation, cells were treated with different concentrations of the test compounds. Suspension cell lines HL-60, K-562, Z-138 and DND-41 were seeded at densities ranging from 2500 to 5500 cells per well in 384-well culture plates containing the test compounds at the same concentration points.

HCT-116 cells = assay: Cell proliferation assay (IncuCyte confluence), HCT-116; conditions: Homo sapiens; HCT-116 colorectal carcinoma; 72 h; mean of two independent experiments ± SEM; read-out: IC50 antiproliferative activity HCT-116
Procedure: as §1, §2

XPO1 (Jurkat XPO1^WT) = target: T1, XPO1 (Jurkat XPO1^WT) (Homo sapiens, UniProt O14980); assay: RanBP1 immunofluorescence (XPO1-mediated nuclear export) in wild-type Jurkat cells; conditions: 3 h; for Subcellular localization of RanBP1, wild-type Jurkat: compound at 4 μM; for IC50: nuclear export of RanBP1 cargo, wild-type Jurkat, mean ± SD of two independent experiments, read-out: IC50 XPO1 inhibition Jurkat XPO1^WT
T1 construct: RanBP1 immunofluorescence staining was performed on both wild type and mutant XPO1^C528S Jurkat cells; endogenous in cells; host or cells: wild-type Jurkat leukemia cells
Procedure: (§3) The effect of the mutation on the activity of the inhibitors was assessed by the visualization of the subcellular localization of the XPO1 cargo RanBP1.
(§4) Stably transfected HeLa NLSSV40-AcGFP-NESPKI were cultured as described in Vercruysse et al.
(§5) Cells were harvested at 400× g, washed in PBS and then transferred into an 8-well µ-Slide (Ibidi) pretreated with 0.1% (w/v) poly-L-lysine (Sigma). Cells were allowed to adhere to the slides and then subsequently fixed (4% PFA in PBS), washed and permeabilized (0.2% Triton X-100 in PBS). Further immunofluorescence staining was then performed according to standard procedures. Employed antibodies were rabbit anti-RanBP1 (ab97659, Abcam, Cambridge, UK) at a 1:500 dilution and secondary Alexa Fluor 488 goat anti-rabbit antibody (A11008, Invitrogen, ThermoFisher Scientific). Cell nuclei were counterstained with DAPI, and the samples were imaged by confocal microscopy on a Leica TCS SP5 confocal microscope (Leica Microsystems, Weitzlar, Germany), employing a HCX PL APO 63× (NA 1.2) water immersion objective. Subsequently, fluorescence was read on an ArrayScan XTI High Content Reader (Thermo Fisher Scientific, Waltham, MA, USA). Nuclear and cytoplasmic compartments were segmented, and their average pixel intensities in the green channel were quantitated similarly as for the XPO1 phenotypic reporter assay.

[1] = target: T2, XPO1^C528S (Jurkat XPO1^C528S) (Homo sapiens, UniProt O14980, C528S); assay: RanBP1 immunofluorescence (XPO1-mediated nuclear export) in mutant XPO1^C528S Jurkat cells; conditions: for Subcellular localization of RanBP1, mutant XPO1^C528S Jurkat: compound at 4 μM; for Subcellular localization of RanBP1, mutant XPO1^C528S Jurkat / IC50: 3 h; for XPO1 inhibitory activity against Jurkat XPO1^C528S, in words / IC50: mutant XPO1^C528S Jurkat; for IC50: nuclear export of RanBP1 cargo, mean ± SD of two independent experiments, read-out: IC50 XPO1 inhibition Jurkat XPO1^C528S
T2 construct: CRISPR/Cas9 genome editing of the Jurkat cell line was performed as in Neggers et al. [43] to generate a XPO1^C528S mutant cell line; endogenous in cells; host or cells: Jurkat cells genome-edited by CRISPR/Cas9 at the XPO1 locus (XPO1^C528S)
T2 sequence (O14980 whole entry C528S): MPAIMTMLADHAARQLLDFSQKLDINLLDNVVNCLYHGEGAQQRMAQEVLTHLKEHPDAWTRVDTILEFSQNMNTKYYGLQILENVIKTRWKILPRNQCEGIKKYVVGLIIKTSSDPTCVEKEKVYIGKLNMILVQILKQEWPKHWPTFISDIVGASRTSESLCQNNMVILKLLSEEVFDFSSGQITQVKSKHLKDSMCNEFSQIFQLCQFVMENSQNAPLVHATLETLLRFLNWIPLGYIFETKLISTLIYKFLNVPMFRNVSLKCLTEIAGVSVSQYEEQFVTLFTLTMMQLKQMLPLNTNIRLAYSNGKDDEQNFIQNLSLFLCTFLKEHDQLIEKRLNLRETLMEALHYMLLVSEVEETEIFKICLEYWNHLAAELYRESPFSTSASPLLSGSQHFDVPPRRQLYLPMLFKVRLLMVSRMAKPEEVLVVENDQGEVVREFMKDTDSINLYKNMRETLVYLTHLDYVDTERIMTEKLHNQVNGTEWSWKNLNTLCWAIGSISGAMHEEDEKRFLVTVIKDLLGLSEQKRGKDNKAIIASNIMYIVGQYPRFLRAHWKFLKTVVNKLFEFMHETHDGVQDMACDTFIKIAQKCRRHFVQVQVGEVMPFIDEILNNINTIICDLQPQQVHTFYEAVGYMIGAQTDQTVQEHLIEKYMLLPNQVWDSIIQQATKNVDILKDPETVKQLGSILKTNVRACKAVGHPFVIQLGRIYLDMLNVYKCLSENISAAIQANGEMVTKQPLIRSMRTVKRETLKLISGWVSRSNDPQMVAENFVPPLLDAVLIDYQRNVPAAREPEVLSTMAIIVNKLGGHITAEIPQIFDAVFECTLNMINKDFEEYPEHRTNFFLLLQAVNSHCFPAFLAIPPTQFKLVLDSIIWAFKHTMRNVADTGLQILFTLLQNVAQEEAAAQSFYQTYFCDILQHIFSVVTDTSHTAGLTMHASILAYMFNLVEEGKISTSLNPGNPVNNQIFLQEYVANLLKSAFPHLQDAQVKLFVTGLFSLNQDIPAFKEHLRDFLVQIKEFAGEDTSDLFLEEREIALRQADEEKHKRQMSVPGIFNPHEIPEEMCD
Procedure: as §3, §4, §5

| SMILES | IC50 (Z-138 cells) [µM] | IC50 (HCT-116 cells) [µM] | Subcellular localization of RanBP1, wild-type Jurkat (XPO1 (Jurkat XPO1^WT)) | IC50 (XPO1 (Jurkat XPO1^WT)) [µM] | Subcellular localization of RanBP1, mutant XPO1^C528S Jurkat [1] | XPO1 inhibitory activity against Jurkat XPO1^C528S, in words [1] | IC50 [1] [µM] |
| --- | --- | --- | --- | --- | --- | --- | --- |
| O=C(/C=C/c1cncnc1)c1ccc2ccccc2c1 [Compound 9, (E)-1-(Naphthalen-2-yl)-3-(pyrimidin-5-yl)prop-2-en-1-one] | 1.8 ± 0.05 | 2.4 ± 0.2 | RanBP1 accumulated in the nucleus | 2.2 ± 0.03 | its nuclear export was not inhibited | lost their inhibitory activity | > 5 |
| COc1cc(OC)cc(C(=O)/C=C/c2cncnc2)c1 [Compound 10, (E)-1-(3′,5′-Dimethoxyphenyl)-3-(pyrimidin-5′’-yl)prop-2-en-1-one] | 0.5 ± 0.05 | 4.7 ± 1.7 | RanBP1 accumulated in the nucleus | 0.3 ± 0.3 | its nuclear export was not inhibited | lost their inhibitory activity | > 5 |
